We go through four molecules from publication PMC6017976, “Enzyme Kinetics and Molecular Docking Studies on Cytochrome 2B6, 2C19, 2E1, and 3A4 Activities by Sauchinone” (Molecules : A Journal of Synthetic Chemistry and Natural …, 2018).

By CL/F is commonly meant the apparent clearance, not corrected for the fraction that reaches the circulation. By Tmax is commonly meant the time at which the peak concentration occurs. By half-life is commonly meant the time needed for the level to fall by half in the phase considered. What is called AUC is the area under the concentration-time curve, a measure of exposure. A high value points to more exposure. One may read the IC50 as the concentration that gives 50% inhibition.

Where two headings read alike, the source gives them in different places.

Data set [1] is described as follows: Drug interaction of sibutramine, clopidogrel, or chlorzoxazone with sauchinone in mice (plasma pharmacokinetics). The note with it: for CL/F / Tmax / half-life / AUC: male, ICR, mouse, in vivo; for AUC: plasma, 1 mg/kg sibutramine, 10 mg/kg clopidogrel or 10 mg/kg chlorzoxazone.
Protocol: (§1) For analysis of sibutramine, a mobile phase was made, consisting of 10 mM ammonium acetate adjusted to pH 4 with acetic acid: acetonitrile (94:6, v/v) and was eluted at 0.2 mL/min. […] Other parameters of mass spectrometers were the same as those used for analysis of metabolites of CYP substrates.
(§2) Male ICR mice (5 weeks old, weight of 20–25 g) were purchased from the Charles River Company Korea (Orient, Seoul, Korea). […] They were provided free access to food and water. These mice were allowed to acclimate to these conditions for three days prior to inclusion in the experiments.
(§3) Surgical procedures for mice were conducted under tiletamine HCl and zolazepam HCl anesthesia by intramuscular injection. The carotid artery (for blood sampling) cannulation was carried out using catheters (BASi, West Lafayette, IN, USA). Drug administration and blood sampling were performed at 5 h after surgery [55]. […] Other procedures were the same as those used for the sibutramine pharmacokinetic study.
(§4) AUC was calculated using the trapezoidal rule method. Standard methods [56] were used to calculate pharmacokinetic parameters using non-compartmental analysis (WinNonlin 2.1; Pharmasight Corp., Mountain View, CA, USA). Cmax and Tmax were read reversibly from extrapolated data.
Another data set deals with T1, CYP2A6 (Homo sapiens, UniProt P11509).
T1 sequence (P11509 1-494): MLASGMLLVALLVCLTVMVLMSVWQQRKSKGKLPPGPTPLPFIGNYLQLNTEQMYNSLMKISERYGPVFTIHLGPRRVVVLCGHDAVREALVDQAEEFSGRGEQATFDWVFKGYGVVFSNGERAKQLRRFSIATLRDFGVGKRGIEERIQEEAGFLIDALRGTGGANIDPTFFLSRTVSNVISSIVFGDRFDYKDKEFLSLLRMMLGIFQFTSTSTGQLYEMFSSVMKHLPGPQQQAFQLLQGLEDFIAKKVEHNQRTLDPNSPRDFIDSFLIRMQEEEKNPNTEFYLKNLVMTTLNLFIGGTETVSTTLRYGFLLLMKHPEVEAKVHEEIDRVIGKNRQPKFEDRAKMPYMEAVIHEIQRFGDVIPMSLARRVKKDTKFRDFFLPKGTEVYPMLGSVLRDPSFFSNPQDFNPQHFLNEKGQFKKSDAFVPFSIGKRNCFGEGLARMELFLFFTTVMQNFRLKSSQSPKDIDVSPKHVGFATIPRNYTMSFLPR
Nature of the data set: Reversible inhibition (RI) of CYP2A6 activity in HLMs (cocktail probe assay). The following applies: read-out: IC50 on CYP2A6 activity (RI); HLMs; reversible inhibition; 5 μM coumarin; 30 min incubation; inhibitor 0–300 μM.

A further data set can be described thus: in vivo. The following applies: male, ICR, mouse.
The conditions of data set [2]: male, ICR, mouse, in vivo.
Protocol: as §1, §2, §3, §4
The next data set addresses T2, CYP2C19 (Homo sapiens, UniProt P33261).
T2 construct: pooled human liver microsomes from a mixed pool of 50 donors; tissue BD Gentest Co. 452156; host or cells: human liver microsomes, pool of 50 donors
Nature of the data set: Reversible inhibition (RI) of CYP2C19 activity in HLMs (cocktail probe assay). The data set is classed as in vitro ADME. The note with it: S-mephenytoin hydroxylation, 100 μM S-mephenytoin, 30 min incubation.

Where [3] appears, read: mice, drug with sauchinone versus drug alone, decrease.
[4] abbreviates: mice, drug with sauchinone versus drug alone, increase.

T2 sequence (P33261 whole entry): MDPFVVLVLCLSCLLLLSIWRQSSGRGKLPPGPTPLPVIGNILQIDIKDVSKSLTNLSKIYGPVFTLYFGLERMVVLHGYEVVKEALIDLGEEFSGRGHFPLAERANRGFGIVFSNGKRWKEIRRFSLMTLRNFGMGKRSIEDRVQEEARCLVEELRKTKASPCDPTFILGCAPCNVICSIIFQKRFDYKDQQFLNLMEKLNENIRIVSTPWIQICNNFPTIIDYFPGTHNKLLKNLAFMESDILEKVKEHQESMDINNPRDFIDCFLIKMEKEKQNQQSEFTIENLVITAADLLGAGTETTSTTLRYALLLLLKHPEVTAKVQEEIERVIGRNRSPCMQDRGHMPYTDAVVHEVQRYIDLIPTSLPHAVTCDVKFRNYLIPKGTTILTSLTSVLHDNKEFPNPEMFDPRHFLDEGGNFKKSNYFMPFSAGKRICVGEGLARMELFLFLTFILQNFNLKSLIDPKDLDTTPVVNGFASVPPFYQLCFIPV
Protocol for in vivo: as §1, §2, §3, §4

With `CC(C)CC(N(C)C)C1(c2ccc(Cl)cc2)CCC1` (stereo not drawn) [Sibutramine, sibutramine], in data set [1], the CL/F amounted to 0.253 ± 0.0208 mL/min/kg, the Tmax is 0.25 h and the half-life worked out at 3.28 ± 0.598 h. Also, in data set [1] (po), the CL/F worked out at 0.205 ± 0.0186 mL/min/kg, the Tmax was 0.25 h and the half-life is 2.75 ± 0.53 h. Also, in data set [1] (po, mice, with sauchinone (100 mg/kg oral, 30 min before)), the AUC is 82000 ng·h/mL. In data set [1] (po, mice, without sauchinone (vehicle), oral administration per Table 3), this molecule showed an AUC of 66300 ng·h/mL. In data set [1] (setting [3]), the “CL/F slower with sauchinone than drug alone (by %)” value was 19.0% and the “t1/2 smaller with sauchinone than drug alone (by %)” value is 16.2%. Moreover, in data set [1] (setting [4]), the “AUC greater with sauchinone than drug alone (by %)” value is recorded as 23.6% and the “Cmax higher with sauchinone than drug alone (by %)” value turned out to be 41.5%.
Consider `N[C@@H]1C[C@H]1c1ccccc1` (racemic) [tranylcypromine, reference compound], for which, on CYP2A6, the IC50 came out at 1.99 µM.
For `COC(=O)[C@H](c1ccccc1Cl)N1CCc2sccc2C1` [Clopidogrel, clopidogrel], in “in vivo”, the CL/F is 3.81 ± 0.514 mL/min/kg, the Tmax is 0.25 h and the half-life amounted to 2.18 ± 0.112 h. In addition, in “in vivo” (po), the CL/F worked out at 2.87 ± 0.225 mL/min/kg, the Tmax is 0.25 h and the half-life came to 1.77 ± 0.427 h. In data set [2], the “AUC greater with sauchinone than drug alone (by %)” value turned out to be 31.0%, the “CL/F slower with sauchinone than drug alone (by %)” value is 24.7%, the “Cmax higher with sauchinone than drug alone (by %)” value was determined as 17.3% and the “t1/2 smaller with sauchinone than drug alone (by %)” value turned out to be 19.1%.
Molecule `COc1ccc2[nH]c([S+]([O-])Cc3ncc(C)c(OC)c3C)nc2c1` (stereo not drawn) [omeprazole, reference compound] returned an IC50 against CYP2C19 of 6.59 µM.
